pKd: −log10 of the molar value. Where two headings read alike, the source gives them in different places.
Experiments:
Acb4 (SPO1 Acb4) = target: T1, Acb4 (SPO1 Acb4) (Bacillus phage SPO1, UniProt B6V2Y3); assay: Electrophoretic mobility shift assay: titration of recombinant Acb4 with 20 nM alpha-32P-radiolabelled cyclic dinucleotide, 50 mM Tris-HCl pH 7.5, 5 mM MgCl2, 10 mM KCl, 1 mM TCEP, 30 min on ice, nondenaturing 6% PAGE, fraction bound fitted to a single binding model.; conditions: n = 2
T1 construct: gene 1.3; recombinant from E. coli BL21(DE3)-RIL, N-terminal 6xHis-SUMO2 fusion, tag cleaved with SENP2; 96 amino acids, homotetramer
T1 sequence (B6V2Y3 1-96): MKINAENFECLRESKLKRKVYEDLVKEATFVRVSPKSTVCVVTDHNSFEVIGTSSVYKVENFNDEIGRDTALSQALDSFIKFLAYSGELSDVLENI

Bacillus phage SPO1 Acb4 = assay type: binding; conditions: for pKd: fraction bound fit to a single binding model, n = 2
[1] = target: Bacillus phage SPO1 anti-CBASS 4 (Acb4) (Bacillus phage SPO1); assay: SEC-MALS; recombinant apo SPO1 Acb4 in solution; complex migrates at ~42.3 kDa

Compound | pKd (Acb4 (SPO1 Acb4)) | interaction with Acb4 (EMSA) (Bacillus phage SPO1 Acb4) | pKd (Bacillus phage SPO1 Acb4) | further results
Nc1ncnc2c1ncn2[C@@H]1O[C@@H]2COP(=O)(O)O[C@@H]3[C@H](O)[C@@H](COP(=O)(O)O[C@H]2[C@H]1O)O[C@H]3n1ccc(=O)[nH]c1=O [2′3′-cUA, 2′3′-cyclic UMP-AMP, c[U(2′,5′)pA(3′,5′)p]] | 6.19 | – | – | –
Nc1ncnc2c1ncn2[C@@H]1O[C@@H]2COP(=O)(O)O[C@@H]3[C@H](O)[C@@H](COP(=O)(O)O[C@H]2[C@H]1O)O[C@H]3n1ccc(=O)[nH]c1=O [2′3′-cUA] | – | recognizes | 6.19 | –
Bacillus phage SPO1 anti-CBASS 4 (Acb4) (natural protein) | – | – | – | stoichiometry N [1]: 4
Nc1nc2c(ncn2[C@@H]2O[C@@H]3COP(=O)(O)O[C@H]4[C@@H](O)[C@H](n5cnc6c(=O)[nH]c(N)nc65)O[C@@H]4COP(=O)(O)O[C@H]3[C@H]2O)c(=O)[nH]1 [3′3′-cGG, 3′3′-c-di-GMP] | – | No interaction was detected | – | –
Nc1nc2c(ncn2[C@@H]2O[C@@H]3COP(=O)(O)O[C@H]4[C@@H](O)[C@H](n5cnc6c(N)ncnc65)O[C@@H]4COP(=O)(O)O[C@H]3[C@H]2O)c(=O)[nH]1 [3′3′-cGAMP, 3′3′-cyclic GMP-AMP, c[G(3′,5′)pA(3′,5′)p]] | 6.80 | – | – | –
Nc1ncnc2c1ncn2[C@@H]1O[C@@H]2COP(=O)(O)O[C@H]3[C@@H](O)[C@H](n4ccc(=O)[nH]c4=O)O[C@@H]3COP(=O)(O)O[C@H]2[C@H]1O [3′3′-cUA, 3′3′-cyclic UMP-AMP, c[U(3′,5′)pA(3′,5′)p]] | 6.58 | – | – | –
Nc1nc2c(ncn2[C@@H]2O[C@@H]3COP(=O)(O)O[C@H]4[C@@H](O)[C@H](n5cnc6c(N)ncnc65)O[C@@H]4COP(=O)(O)O[C@H]3[C@H]2O)c(=O)[nH]1 [3′3′-cGAMP, 3′3′-cyclic GMP-AMP] | – | – | ~6.80 | pKd (Bacillus phage SPO1 Acb4; listed as 3'3'-cGAMP): 6.80
Nc1ncnc2c1ncn2[C@@H]1O[C@@H]2COP(=O)(O)O[C@H]3[C@@H](O)[C@H](n4ccc(=O)[nH]c4=O)O[C@@H]3COP(=O)(O)O[C@H]2[C@H]1O [3′3′-cUA] | – | recognizes | 6.58 | –
Nc1ncnc2c1ncn2[C@@H]1O[C@@H]2COP(=O)(O)O[C@H]3[C@@H](O)[C@H](n4cnc5c(N)ncnc54)O[C@@H]3COP(=O)(O)O[C@H]2[C@H]1O [3′3′-cAA, 3′3′-c-di-AMP] | – | No interaction was detected | – | –

— article doi:10.1101/2024.12.30.630793 (bioRxiv, 2024)
